Laboratory results as given in US5907038A, “Azepanes” (Hoffmann-La Roche Inc., priority 1995, dated 1999).
Where a name gives a salt, the structure may show the parent alone.

Tests used:
[1] = target: protein kinase C (PKC); experiment: Inhibition of protein kinase C (PKC) (isolated enzyme); assay type: biochemical; settings: partially purified PKC from swine brain; histone H1 substrate; 32° C., 2 minutes; read-out: IC50 (Test Procedure A)
Protocol: A: Inhibition of protein kinase C (PKC) (isolated enzyme): Protein kinase C (PKC) activity is determined by measuring the transfer of ^32 P-labelled phosphate from ^32 P-g-ATP ([…]) to histone H1 ([…]) as the substrate. Partially purified PKC from swine brain is used as the enzyme source [DEAE chromatography according to the method of U. Kikkawa et al. (Methods Enzymol. 99, 288, 1983)]. Activation of the PKC is effected by phospholipid vesicle prepared by ultrasound treatment of a mixture of 0.05 ml of phosphatidylserine (10 mg/ml) and 0.005 ml of diolein (10 mg/ml) in 5 ml of Tris-HCl buffer (20 mM, pH 7.4). The test substances are used in dimethyl sulphoxide (DMSO)/buffer in the concentration range […]. The test is started by the addition of enzyme; after incubation at 32° C. for 2 minutes the reaction is stopped by the addition of 20% trichloroacetic acid (with 1% SDS and 1% sodium pyrophosphate). The precipitated radioactive histone protein is separated from excess ATP by filtration over nitrocellulose membranes and the radioactivity on the filter is measured in a scintillation counter. The inhibitory activity of the test substance is given as the micromolar concentration which is required to reduce the PKC activity by 50% ([…]).

[2] = target: cAMP-dependent protein kinase (PKA); experiment: Inhibition of cAMP-dependent protein kinase (PKA); assay type: biochemical; settings: partially purified PKA from swine brain; histone H1 substrate; cyclic AMP activation; 32° C., 2 minutes; read-out: IC50 (Test Procedure B)
Protocol: B: Inhibition of cAMP-dependent protein kinase (PKA): PKA activity is determined by measuring the transfer of ^32 P-labelled phosphate from ^32 P-g-ATP ([…]) to histone H1 ([…]) as the substrate. Partially purified PKA from swine brain is used as the enzyme source [DEAE chromatography according to the method of U. Kikkawa et al. (Methods Enzymol. 99, 288, 1983)]. Activation of the PKA is effected by cyclic AMP (2 mM) in Tris-HCl buffer (20 mM, pH 7.4). The test substances are used in dimethyl sulfoxide (DMSO)/buffer in the concentration range […]. The test is started by the addition of enzyme; after incubation at 32° C. for 2 minutes the reaction is stopped by the addition of 20% trichloroacetic acid (with 1% SDS and 1% sodium pyrophosphate). The precipitated radioactive histone protein is separated from excess ATP by filtration over nitrocellulose membranes and the radioactivity on the filter is measured in a scintillation counter. The inhibitory activity of the test substance is given as the micromolar concentration which is required to reduce the PKA activity by 50% ([…]).

[3] = tested on: Mouse Hair Follicle; experiment: Cell proliferation in cultured mouse hair follicles (3H-thymidine incorporation, DNA synthesis); assay type: cell-based, mouse (CD-1); settings: for Emax: 3H-thymidine incorporation as percentage of control, whisker follicles of 4-day-old CD-1 mice, read-out: Mouse Hair Follicle DNA Synthesis Maximal Stimulation; for EC50: concentration giving 50% of the maximal stimulation of DNA synthesis
Protocol: C: Cell proliferation in cultured mouse hair follicles Mouse whisker follicles were isolated and cultured according to the method described by Buhl et al., J. Invest. Dermatol. 92, 315-320 (1989). Whisker pads were removed from 4-day-old CD-1 mice and vibrissae were carefully separated from the surrounding tissue with forceps under a dissecting microscope. Four hair follicles were incubated at 37° C. in 2 cm^2 wells in 1 ml of M199 medium containing 20% fetal bovine serum, in the presence or absence of test compound at varying concentrations. Each treatment group consisted of four wells. After 1 day of culture. ^3 H-thymidine was added to the wells to a final concentration of 5 μCi/ml and the follicles were incubated for a further three days. The follicles were then washed with phosphate-buffered saline and incorporated radioactivity was solubilized by addition of 0.5 ml of 1.0M NaOH and incubation for 18 h at 37° C. An aliquot of the alkali extracted was taken for measurement of radioactivity and results were expressed as dpm/follicle. Calculation of maximal stimulation and ED50 values The hair follicle ^3 H-thymidine incorporation values (dpm/follicle), obtained as described above, were then expressed as a percentage of control levels as follows: % control DNA synthesis for test compound=((treatment dpm/follicle)/(control dpm/follicle))×100 The dose-response relationship for each compound was then used to determine: 1) the maximal stimulation of DNA synthesis obtained for that compound, expressed as a percentage of control levels, and 2) the ED50 value, or the concentration (μM) of compound that gave rise to 50% of the maximal stimulation of DNA synthesis.

Row | SMILES | IC50 [1] [µM] | IC50 [2] [µM] | Emax [3] [%] | EC50 [3] [µM]
1 | O=C(N[C@@H]1CNCCC[C@H]1OC(=O)c1ccc(S(=O)(=O)Oc2ccccc2O)cc1)c1ccc(O)cc1 [I/28, 4-(2-Hydroxy-phenoxysulfonyl)-benzoic acid (3R,4R)-3-(4-hydroxy-benzoylamino)-azepan-4-yl ester hydrochloride (1:1)] | – | – | 349 ± 25 | 40
2 | O=C(N[C@@H]1CNCCC[C@H]1OC(=O)c1ccc(O)cc1)c1ccc(O)cc1 [III/1, 4-Hydroxy-benzoic acid (3R,4R)-3-(4-hydroxy-benzoylamino)-azepan-4-yl ester hydrochloride (1:1)] | 10 | 0.026 | 534 ± 52 | 5
3 | O=C(N[C@@H]1CNCCC[C@H]1OC(=O)c1ccc(O)cc1)c1ccc(OC(=O)c2c(O)cccc2O)cc1 [II/1, 4-Hydroxy-benzoic acid (3R,4R)-3-[4-(2,6-dihydroxy-benzoyloxy)-benzoylamino]-azepan-4-yl ester trifluoroacetate (1:1)] | 30 | 0.038 | 468 ± 26 | 10

Further molecules by falling IC50 [1], results first:

Row | IC50 [1] [µM] | IC50 [2] [µM] | SMILES | Emax [3] [%] | EC50 [3] [µM]
4 | 26 | 1.9 | CN(C(=O)c1ccccc1O)c1ccc(C(=O)O[C@@H]2CCCNC[C@H]2NC(=O)c2ccc(O)cc2)cc1 [I/25, 4-[(2-Hydroxy-benzoyl)-methyl-amino]-benzoic acid (3R,4R)-3-(4-hydroxy-benzoylamino)-azepan-4-yl ester trifluoroacetate (1:1)] | – | –
5 | 24 | 0.041 | COc1cc2c(O)cccc2cc1C(=O)O[C@@H]1CCCNC[C@H]1NC(=O)c1ccc(O)cc1 [I/19, 5-Hydroxy-3-methoxy-naphthalene-2-carboxylic acid (3R,4R)-3-(4-hydroxy-benzoylamino)-azepan-4-yl ester trifluoroacetate (1:1)] | 371 ± 50 | 30
6 | 8.8 | 0.07 | O=C(N[C@@H]1CNCCC[C@H]1OC(=O)c1ccc(O)c(O)c1)c1ccc(O)cc1 [I/15, 3,4-Dihydroxy-benzoic acid (3R,4R)-3-(4-hydroxy-benzoylamino)-azepan-4-yl ester trifluoroacetate (1:1)] | – | –
